Tested on: guinea-pig urinary bladder (GPB) cells
Assay: Membrane hyperpolarization (MHP) assay, DiBAC(4)3 dye, FLIPR
Type: cell-based
Conditions: Cavia porcellus; for Emax: maximal steady-state hyperpolarization in GPB cells, normalized to response with 10 μM P1075 (=100%); for EC50: membrane hyperpolarization in GPB cells, concentration eliciting 50% of the maximal response of the test sample
Protocol: Compounds were evaluated for potassium channel opening activity using primary cultured guinea-pig urinary bladder (GPB) cells.
For the preparation of urinary bladder smooth muscle cells, urinary bladders were removed from male guinea-pigs (Hartley, Charles River, Wilmington, Mass.) weighing 300-400 g and placed in ice-cold Ca^2+-free Krebs solution (Composition, mM: KCl, 2.7; KH2PO4, 1.5; NaCl, 75; Na2HPO4, 9.6; Na2HPO4.7H2O, 8; MgSO4, 2; glucose, 5; HEPES, 10; pH 7.4). Cells were isolated by enzymatic dissociation as previously described with minor modifications in (Klockner, U. and Isenberg, G., Pflugers Arch. 1985, 405, 329-339), hereby incorporated by reference. The bladder was cut into small sections and incubated in 5 mL of the Kreb's solution containing 1 mg/mL collagenase (Sigma, St. Louis, Mo.) and 0.2 mg/mL pronase (Calbiochem, La Jolla, Calif.) with continuous stirring in a cell incubator for 30 minutes. The mixture was then centrifuged at 1300×g for 5 minutes, and the pellet resuspended in Dulbecco's PBS (GIBCO, Gaithersburg, Md.) and recentrifuged to remove residual enzyme. The cell pellet was resuspended in 5 mL growth media (composition: Dulbecco's modified Eagle's medium supplemented with 10% fetal bovine serum, 100 units/mL penicillin, 100 units/mL streptomycin and […] amphotericin B) and further dissociated by pipetting the suspension through a flame-polished Pasteur pipette and passing it through a polypropylene mesh membrane (Spectrum, Houston, Tex.). The cell density was adjusted to 100,000 cells/mL by resuspension in growth media. Cells were plated in clear-bottomed black 96-well plates (Packard) for membrane potential studies at a density of 20,000 cells/well and maintained in a cell incubator with 90% air: 10% CO2 until confluent. Cells were confirmed to be of smooth muscle type by cytoskeletal staining using a monoclonal mouse anti human-α-smooth muscle actin (Biomeda, Foster City, Calif.).
Functional activity at potassium channels was measured by evaluating changes in membrane potential using the bis-oxonol dye DiBAC(4)3 (Molecular Probes) in a 96-well cell-based kinetic assay system, Fluorescent Imaging Plate Reader (FLIPR) (K. S. Schroeder et al., J. Biomed. Screen., v. 1 pp. 7581 (1996)), hereby incorporated by reference. DiBAC(4) is an anionic potentiometric probe which partitions between cells and extracellular solution in a membrane potential-dependent manner. With increasing membrane potential (for example, K^+ depolarization), the probe further partitions into the cell; this is measured as an increase in fluorescence due to dye interaction with intracellular lipids and proteins. Conversely, decreasing membrane potential (hyperpolarization by potassium channel openers) evokes a decrease in fluorescence.
Confluent guinea-pig urinary bladder cells cultured in black clear-bottomed 96-well plates were rinsed twice with […] assay buffer (composition, mM: HEPES, 20; NaCl, 120; KCl, 2; CaCl2, 2; MgCl2, 1; glucose, 5; pH 7.4 at 25° C.) containing 5 μM DiBAC(4) and incubated with […] of the buffer in a cell incubator for 30 minutes at 37° C. to ensure dye distribution across the membrane. After recording the baseline fluorescence for 5 minutes, the reference or test compounds, prepared at 10 times the concentration in the assay buffer, were added directly to the wells. Changes in fluorescence were monitored for an additional 25 minutes. Hyperpolarization responses were corrected for any background noise and were normalized to the response observed with 10 μM of the reference compound P1075, N″-cyano-N-(tert-pentyl)-N′-(3-pyridinyl)guanidine, which was assigned as 100%. P1075 is a potent opener of smooth muscle KATP channels (Quast et al., Mol. Pharmacol., v. 43 pp. 474-481 (1993)) and was prepared using the procedures described in (Manley, J. Med. Chem. (1992) 35, 2327-2340), hereby incorporated by reference. […]

SMILES	Emax [%]	EC50 [nM]
Cn1[nH]c(=O)c2c1NC1=C(C(=O)CC1)C2c1ccc(Cl)c([N+](=O)[O-])c1 (stereo not shown) [Example 10, 4-(4-chloro-3-nitrophenyl)-1-methyl-1,2,4,6,7,8-hexahydrocyclopenta[b]pyrazolo[4,3-e]pyridine-3,5-dione]	90	2350
Cn1[nH]c(=O)c2c1NC1=C(C(=O)CC1)C2c1ccc2nsnc2c1 (stereo not shown) [Example 17, 4-(2,1,3-benzothiadiazol-5-yl)-1-methyl-1,2,4,6,7,8-hexahydrocyclopenta[b]pyrazolo[4,3-e]pyridine-3,5-dione]		> 10000
Cn1[nH]c(=O)c2c1NC1=C(C(=O)CC1)C2c1ccc(F)c(I)c1 (stereo not shown) [Example 12, 4-(4-fluoro-3-iodophenyl)-1-methyl-1,2,4,6,7,8-hexahydrocyclopenta[b]pyrazolo[4,3-e]pyridine-3,5-dione]	101	320
Cn1[nH]c(=O)c2c1NC1=C(C(=O)OCC1)C2c1ccc(F)c(Br)c1 (stereo not shown) [Example 31, 4-(3-bromo-4-fluorophenyl)-1-methyl-1,2,4,7,8,9-hexahydropyrano[4,3-b]pyrazolo[4,3-e]pyridine-3,5-dione]	96	760
